The text below walks through data of US20050238655A1, “Antiviral activity from medicinal mushrooms” (priority 2004, published 2005).

The structures appear in SMILES notation.

The test system of assay [1] is Vaccinia. The class given is cell-based.
Assay [2] relates to Cowpox. The class given is cell-based.

With `Nc1ccn(C[C@@H](CO)OCP(=O)(O)O)c(=O)n1` [CDV], the PR CDV EC90 in assay [1] was 17 µg/mL; in assay [2] it was 18.1 µg/mL.
